Results reported in patent US9017692B2, “Antimicrobial agent, bacterial strain, biosynthesis, and methods of use” (priority 2011, dated 2015).

How the values were obtained:
PMB-S, KPN.2461 = assay: MIC, CLSI broth microdilution, Gram-negative clinical isolates; assay type: cell-based, Klebsiella pneumoniae
Protocol: (§1) Plates were incubated at 35° C. for 24 h.
(§2) The activity of paenibacterin was also tested against clinical isolates of the following Gram-negative bacterial strains: four strains of the species Pseudomonas aeruginosa (PAE), three strains of the species Acinetobacter baumannii (ABA), two strains of the species Escherichia coli (ECO), and four strains of the species Klebsiella pneumoniae (KPN). Particularly, the strains of Gram-negative bacteria included polymyxin B-resistant (PMB-R) and polymyxin B-sensitive (PMB-S) strains of each above listed species. The MICs were determined using the above described CLSI broth microdilution method, in which the method was performed with both non-binding surface coated (NBS) and polystyrene (PS) 96-well plates (Tables 11 and 12, respectively). The MICs were generally lower in the NBS 96-well plates as compared to the PS 96-well plates.

KPN.674 = assay: as above; assay type: cell-based, Klebsiella pneumoniae
Protocol: as §1, §2

KPN.2317 = assay: as above; assay type: cell-based, Klebsiella pneumoniae
Protocol: as §1, §2

PMB-R, KPN.2463 = assay: as above; assay type: cell-based, Klebsiella pneumoniae
Protocol: as §1, §2

ABA.2315 = assay: as above; assay type: cell-based, Acinetobacter baumannii
Protocol: as §1, §2

ABA.2232 = assay: as above; assay type: cell-based, Acinetobacter baumannii
Protocol: as §1, §2

ABA.1570 = assay: as above; assay type: cell-based, Acinetobacter baumannii
Protocol: as §1, §2

[1] = system: L. monocytogenes OSY-8578; assay: Spot-on-lawn antimicrobial activity; assay type: cell-based, Listeria monocytogenes; settings: TSBYE
Protocol: (§3) Spot-on-lawn method [He, Z., et al., Appl. Environ. Microbiol., (2007) 73:168-178] was used for the bioassay of antimicrobial activity. Bacterial indicators were incubated at 37° C. for 24 h, except Pseudomonas putida, Clostridium difficile and methycillin resistant Staphylococcus aureus which were incubated for 48 h (Table 1). The indicator overlay was prepared by pouring 10 ml soft agar (seeded with 10 μL indicator culture) onto tryptose agar as basal medium in a petri dish. Purified antimicrobials were two-fold serially diluted and aliquots (10 μL each) were spotted onto the soft agar. The plates were incubated overnight and inspected for the presence of growth inhibition zones. Antimicrobial activity was expressed in arbitrary units (AU)/mL; this value is the reciprocal of the highest dilution displaying a zone of inhibition corresponding to 1 mL of the non-diluted antimicrobial preparation.
(§4) Purified paenibacterin was used for the antimicrobial spectrum test. Microorganisms tested for sensitivity to this compound included pathogenic (e.g., Salmonella Typhimurium, Escherichia coli O157:H7, Listeria monocytogenes, and Staphylococcus aureus) and non-pathogenic (e.g., Escherichia coli K-12, Pseudomonas putida, and Enterococcus faecalis) bacteria (Table 1).

[2] = Enzyme sensitivity test (residual antimicrobial activity, spot-on-lawn); assay type: physicochemical; settings: 10 h
Protocol: Crude extracts of Paenibacillus thiaminolyticus OSY-SE were tested for sensitivity to heat and pH change while purified antimicrobial compounds were used for enzyme sensitivity tests. For thermal stability test, crude extract solutions were exposed to 37° C., 55° C. (in incubators) or 80° C. (in a water bath) for 24 h or autoclaved at 121° C. for 5 minutes. For pH stability test, crude extract solutions were diluted with 25 mM phosphate buffer (pH 7.0) and adjusted to pH 3.0, 5.0 and 9.0, followed by incubation for 12 h. Samples were neutralized to pH 7.0 before the antimicrobial activity test. Enzyme sensitivity tests were performed in 25 mM phosphate buffer (pH 7.0) with trypsin (type I, 12705 U/mg), lipase (type I, 9 U/mg), pronase (6.31 U/mg), α-glucosidase (type I, 100U/1.93 mg), lysozyme (46400 U/mg) and in 25 mM phosphate buffer (pH 8.0) with polymyxin acylase (16 U/mg). All enzymes were purchased from Sigma (St. Louis, Mo.) except polymyxin acylase (Wako Chemicals USA, Inc., Richmond, Va.). Digesting solutions were prepared at concentration of 0.1 mg/mL for polymyxin acylase and 0.5 mg/mL for others. These mixtures of enzyme and antimicrobial compound (40 μL of final volume) were incubated at 37° C. for 10 h. Quantitative spot-on-lawn bioassay was used to measure antimicrobial activities after these treatments.

PAE.2325 = assay: MIC, CLSI broth microdilution, Gram-negative clinical isolates; assay type: cell-based, Pseudomonas aeruginosa
Protocol: as §1, §2

PAE.2281 = assay: as above; assay type: cell-based, Pseudomonas aeruginosa
Protocol: as §1, §2

PAE.44 = assay: as above; assay type: cell-based, Pseudomonas aeruginosa
Protocol: as §1, §2

PAE.999 = assay: as above; assay type: cell-based, Pseudomonas aeruginosa
Protocol: as §1, §2

[3] = system: polymixin B-sensitive strains of Escherichia coli; assay: MIC, Table 11; assay type: cell-based; settings: NBS plates
Protocol: as §1, §2

[4] = system: polymyxin B-resistant and polymyxin B-sensitive strains of Acinetobacter baumannii; assay: MIC, Table 11; assay type: cell-based; settings: Table 11 (NBS plates)
Protocol: as §1, §2

[5] = system: polymixin B-sensitive strains of Klebsiella pneumoniae; assay: MIC, Table 11; assay type: cell-based; settings: NBS plates
Protocol: as §1, §2

[6] = system: polymixin B-sensitive strains of Pseudomonas aeruginosa; assay: MIC, Table 11; assay type: cell-based; settings: NBS plates
Protocol: as §1, §2

ATCC 25922 ECO.35 = assay: MIC, CLSI broth microdilution, Gram-negative clinical isolates; assay type: cell-based, Escherichia coli
Protocol: as §1, §2

ECO.2276 = assay: as above; assay type: cell-based, Escherichia coli
Protocol: as §1, §2

L. monocytogenes = assay: Antimicrobial spectrum test; assay type: cell-based, Listeria monocytogenes; settings: gram-positive pathogens such as L. monocytogenes
Protocol: as §3, §4

paenibacterin
Minimum inhibitory concentration (MIC) (PMB-S, KPN.2461; KPN.2461 (PMB-S), NBS 96-well plates): 4 µg/mL
Minimum inhibitory concentration (MIC) (PMB-S, KPN.2461; KPN.2461, PS 96-well plates): 32 µg/mL
Minimum inhibitory concentration (MIC) (KPN.674; NBS 96-well plates): 8 µg/mL
Minimum inhibitory concentration (MIC) (KPN.674; PS 96-well plates): 32 µg/mL
Minimum inhibitory concentration (MIC) (KPN.2317; NBS 96-well plates): 64 µg/mL
Minimum inhibitory concentration (MIC) (KPN.2317; PS 96-well plates): 64 µg/mL
Minimum inhibitory concentration (MIC) (PMB-R, KPN.2463; KPN.2463 (PMB-R), NBS 96-well plates): 8 µg/mL
Minimum inhibitory concentration (MIC) (PMB-R, KPN.2463; KPN.2463, PS 96-well plates): 32 µg/mL
Minimum inhibitory concentration (MIC) (ABA.2315; NBS 96-well plates): 2 µg/mL
Minimum inhibitory concentration (MIC) (ABA.2315; PS 96-well plates): 32 µg/mL
Minimum inhibitory concentration (MIC) (ABA.2232; NBS 96-well plates): 2 µg/mL
Minimum inhibitory concentration (MIC) (ABA.2232; PS 96-well plates): 32 µg/mL
Minimum inhibitory concentration (MIC) (ABA.1570; NBS 96-well plates): 2 µg/mL
Minimum inhibitory concentration (MIC) (ABA.1570; PS 96-well plates): 32 µg/mL
Antimicrobial activity (AU/ml) [1]: 1600 AU/ml
Antimicrobial activity after enzyme treatment ([2]; lipase 0.5 mg/mL, pH 7.0, 37° C.): resistant
Antimicrobial activity after enzyme treatment ([2]; lysozyme 0.5 mg/mL, pH 7.0, 37° C.): resistant
Antimicrobial activity after enzyme treatment ([2]; polymyxin acylase 0.1 mg/mL, pH 8.0, 37° C.): activity was lost
Antimicrobial activity after enzyme treatment ([2]; pronase 0.5 mg/mL, pH 7.0, 37° C.): activity was lost
Antimicrobial activity after enzyme treatment ([2]; trypsin 0.5 mg/mL, phosphate buffer pH 7.0, 37° C.): resistant
Antimicrobial activity after enzyme treatment ([2]; α-glucosidase 0.5 mg/mL, pH 7.0, 37° C.): resistant
Minimum inhibitory concentration (MIC) (PAE.2325; NBS 96-well plates): 16 µg/mL
Minimum inhibitory concentration (MIC) (PAE.2325; PS 96-well plates): 64 µg/mL
Minimum inhibitory concentration (MIC) (PAE.2281; NBS 96-well plates): 32 to 64 µg/mL
Minimum inhibitory concentration (MIC) (PAE.2281; PS 96-well plates): 64 µg/mL
Minimum inhibitory concentration (MIC) (PAE.44; non-binding surface coated (NBS) 96-well plates): 8 µg/mL
Minimum inhibitory concentration (MIC) (PAE.44; polystyrene (PS) 96-well plates): 64 µg/mL
Minimum inhibitory concentration (MIC) (PAE.999; NBS 96-well plates): 8 µg/mL
Minimum inhibitory concentration (MIC) (PAE.999; PS 96-well plates): 64 µg/mL
MIC [3]: 8 µg/mL
MIC [4]: 2 µg/mL
MIC [5]: 8 µg/mL
MIC [6]: 8 µg/mL
Minimum inhibitory concentration (MIC) (ATCC 25922 ECO.35; ECO.35 (ATCC 25922), NBS 96-well plates): 8 µg/mL
Minimum inhibitory concentration (MIC) (ATCC 25922 ECO.35; ECO.35, PS 96-well plates): 16 µg/mL
Minimum inhibitory concentration (MIC) (ECO.2276; NBS 96-well plates): 8 µg/mL
Minimum inhibitory concentration (MIC) (ECO.2276; PS 96-well plates): 16 µg/mL
Antimicrobial activity (in words) (L. monocytogenes): good activity
